From US20260209242A1, “CAMPTOTHECIN DERIVATIVE, PHARMACEUTICAL COMPOSITION, AND PREPARATION METHOD AND USE THEREFOR” (priority 2022, published 2026)
Values after ≈ are worked out from the molar mass of the structure shown. Like-named read-outs stand apart in the source and are kept apart here.

Legend:
MDA-MB-468 = assay: Inhibition of proliferation of cells MDA-MB-468 (CelltiterGlo, 72 h); format: cell-based; conditions: Homo sapiens; MDA-MB-468 cells, 72 h, CTG; read-out: IC50 (nM), antiproliferative activity on MDA-MB-468
Protocol: (§1) • (1) Cell plating: first, tumor cells MDA-MB-468 were cultured using a corresponding culture medium, trypsinized, centrifuged, resuspended for counting, adjusted to an appropriate concentration, and then plated on a 384-well plate. • (2) Co-incubation of the compounds and tumor cells: after the cells adhered to the wall, 100 nL of a diluted bioactive substance (test compound) was added to the cell culture plate using ECHO, the final concentration of DMSO in wells of the cell plate was 0.33%, and the incubation was performed in an incubator at 37° C. with […] for 72 h. • (3) After the incubation was complete, 30 μL of a CTG reagent (CelltiterGlo kit) was added to each well. The culture was oscillated on a fast oscillator for 2 min, centrifuged at 1,000 rpm for 1 min, and kept away from light at room temperature for 30 min. The chemiluminescence signal value was read using an Envision instrument. • (4) Cell viability detection: IC50 was calculated using GraphPad Prism 8 software, and the IC50 of the compounds was obtained using the following nonlinear fitting formula (see Table 2):
[formula] • Y: inhibition rate: X: log value of compound concentration;
(§2) [formula] • high-reading control wells: cells with addition of 100 nL DMSO; and • low-reading control wells: cell-free wells.

NCI-N87 = assay: Inhibition of proliferation of cells NCI-N87 (CelltiterGlo, 72 h); format: cell-based; conditions: Homo sapiens; NCI-N87 cells, 72 h, CTG; read-out: IC50 (nM), antiproliferative activity on cells NCI-N87
Protocol: as §1, with “NCI-N87” for “MDA-MB-468”, “3):” for “2):”
[formula] • Y: inhibition rate, X: log value of compound concentration;
as §2

[1] = Kinetic solubility test in PBS 7.4; format: physicochemical
Protocol: 10 mM stock solutions of the test substances 6-2, 11-2, 17-2, Dxd, and the control drugs progesterone and diclofenac were prepared using DMSO respectively.
15 μL of 10 mM stock solution of each of the test substances was added to a corresponding position of a corresponding 96-well plate in a specified sequence. 485 μL of the PBS 7.4 was added to a corresponding vial on a sample plate. The experiment was run in duplicate. Each vial was additionally provided with a stirring rod and was plugged. Then, the sample plate was transferred in a thermostatic mixer, and oscillated at a revolving speed of 1,100 rpm at 25° C. for 2 h. 2 h later, the plug was removed, the stirring rod was attracted away with a large magnet, and then the sample was transferred from the sample plate to the filter plate. Negative pressure was generated using a vacuum pump to filter the sample. 5 μL of filtrate and 5 μL of blank DMSO were transferred to another sample plate, and then 490 μL of internal standard water (acetonitrile:water=1:1) containing the internal standard was added. Depending on peak shapes, a certain proportion of internal standard water may be used to dilute the sample diluent to obtain better peak shapes.
6 μL was transferred from the 10 mM DMSO stock solution plate to a blank plate, and was prepared into a 300 μM standard substance solution with addition of 194 μL of DMSO. 5 μL was transferred from the 300 μM standard substance solution plate to still another blank plate, and then 5 μL of blank buffer and 490 μL of the internal standard water containing the internal standard (acetonitrile:water=1:1) were added until a final concentration of the standard substance solution was 3 μM.
An injection plate was transferred on an injection tray of an autosampler to evaluate the sample by LC/MS analysis.
All calculations were performed using Microsoft Excel.
The sample filtrate was analyzed and quantified by qualitative and quantitative LC/MS of standard substance peaks at known concentrations. The calculation formula for the solubility values of the reference drugs and the test substances are as follows:
[Sample] is the compound concentration, DFSample refers to the sample dilution factor, [STD] is the standard substance concentration of the compound, AREAStd is the standard substance peak area of the compound, and AREASample is the peak area of the compound sample.

CYP3A4 = molecular target: T1, CYP3A4 (Homo sapiens, UniProt P08684); assay: Inhibition on human hepatomicrosomes CYP3A4; format: in vitro ADME
T1 construct: from tissue; host or cells: human liver microsomes

[2] = Stability of compounds in human plasma; format: in vitro ADME
Protocol: • (1) 199 μL of human plasma was added to the culture plate of each cell. The culture plate was preheated to 37° C., and kept at this temperature for 15 min. • (2) After preincubation, 1 μL of 1 mmol/L each test compound and 1 μL of 1 mmol/L control compound were added to 199 μL of plasma, so that a final concentration of each test compound was 5 μmol/L and that of the control compound was 5 gmol/L. The final concentration of the organic solvent was 0.5%. The experiment would be duplicated twice. • (3) Reaction samples were incubated at 37° C. • (4) The reaction was stopped by adding 600 μL of cold methanol containing the internal standard at 0, 1, 2, 6, and 24 h. Each sample was vortex mixed for 10 min, and then centrifuged at 3,220 g for 30 min to precipitate the protein. […] Based on the signal response and peak shapes of liquid chromatography-mass spectrometry (LC-MS), the supernatant would be diluted with ultrapure water.
All calculations were performed using Microsoft Excel. The peak area ratio was determined from the chromatogram of extracted ions. The percentage of compounds remaining at each time point was calculated as per the following formula: […]

[3] = Stability of compounds in human plasma; format: in vitro ADME; conditions: 5 μmol/L
CYP2D6 = CYP2D6 (Homo sapiens, UniProt P10635); assay: Inhibition on human hepatomicrosomes CYP2D6
Sequence of CYP2D6 (P10635 whole entry): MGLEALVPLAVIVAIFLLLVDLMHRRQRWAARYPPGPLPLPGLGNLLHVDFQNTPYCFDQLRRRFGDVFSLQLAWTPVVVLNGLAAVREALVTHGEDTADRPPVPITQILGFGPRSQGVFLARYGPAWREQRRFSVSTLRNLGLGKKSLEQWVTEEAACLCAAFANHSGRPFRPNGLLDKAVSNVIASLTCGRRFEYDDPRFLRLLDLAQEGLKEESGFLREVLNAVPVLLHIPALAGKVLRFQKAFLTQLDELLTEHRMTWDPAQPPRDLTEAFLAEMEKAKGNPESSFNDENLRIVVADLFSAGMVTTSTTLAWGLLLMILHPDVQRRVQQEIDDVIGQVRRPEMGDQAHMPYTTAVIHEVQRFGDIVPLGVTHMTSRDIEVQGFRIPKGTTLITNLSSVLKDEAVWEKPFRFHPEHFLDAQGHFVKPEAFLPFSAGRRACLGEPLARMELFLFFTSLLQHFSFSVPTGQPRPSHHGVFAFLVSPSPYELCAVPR

T1 sequence (P08684 whole entry): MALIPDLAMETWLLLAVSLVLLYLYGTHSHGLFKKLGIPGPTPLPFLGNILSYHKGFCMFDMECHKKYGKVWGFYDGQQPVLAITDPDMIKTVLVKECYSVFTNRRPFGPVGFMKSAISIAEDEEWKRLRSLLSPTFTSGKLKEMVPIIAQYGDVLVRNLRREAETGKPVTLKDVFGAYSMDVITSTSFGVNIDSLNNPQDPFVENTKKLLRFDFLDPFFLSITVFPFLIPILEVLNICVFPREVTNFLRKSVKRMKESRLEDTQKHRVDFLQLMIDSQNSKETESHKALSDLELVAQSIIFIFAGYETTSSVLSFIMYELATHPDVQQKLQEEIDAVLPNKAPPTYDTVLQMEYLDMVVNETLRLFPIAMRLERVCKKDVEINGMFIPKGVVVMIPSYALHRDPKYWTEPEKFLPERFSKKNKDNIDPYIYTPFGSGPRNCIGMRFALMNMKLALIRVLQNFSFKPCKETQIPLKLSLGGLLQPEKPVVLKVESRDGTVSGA

**Q.** With `CC[C@@]1(O)C(=O)OCc2c1cc1n(c2=O)Cc2c-1nc1cc(F)c(C)c3c1c2[C@@H](NC(=O)[C@@H](O)C1CC1)CCC3` [Compound 11-2, (S)-2-cyclopropyl-N-((1S,10S)-10-ethyl-6-fluoro-10-hydroxy-5-methyl-11,14-dioxo-1,2,3,4,10,11,14,16-octahydro-13H-cyclohepta[de]pyrano[3′,4′:6,7]indolizino[1,2-b]quinolin-1-yl)-2-hydroxyacetamide] as the compound, how does the IC50 (MDA-MB-468) read?
**A.** 4.5 nM

**Q.** What about the IC50 (NCI-N87) of the same compound?
**A.** 2.3 nM

**Q.** What about the “solubility in the PBS 7.4 compared with Dxd (in words)” value [1] of the same compound?
**A.** significantly better solubility in the PBS 7.4 than Dxd

**Q.** What about the solubility at 2 h ([1]; 25 °C, pH 7.4, aqueous buffer, kinetic from dmso stock) of the same compound?
**A.** 34 µM (≈ 18.6 µg/mL)

**Q.** What about the IC50 (CYP3A4) of the same compound?
**A.** > 30 µM

**Q.** What about the IC50 (CYP3A4; read-out: 3A4T (IC50 μM), human hepatomicrosomes, substrate testosterone) of the same compound?
**A.** > 30 µM

**Q.** And the “Residual percentage (%) 1 h” value ([2]; 1 h, 5 μmol/L)?
**A.** 96.80%

**Q.** What about the “Residual percentage (%) 2 h” value ([2]; 2 h, 5 μmol/L) of the same compound?
**A.** 92.06%

**Q.** What about the “Residual percentage (%) 6 h” value ([2]; 6 h, 5 μmol/L) of the same compound?
**A.** 94.45%

**Q.** And the “Residual percentage (%) 24 h” value ([2]; 24 h, 5 μmol/L)?
**A.** 88.81%

**Q.** What about the “stability in human plasma (in words)” value ([2]; plasma) of the same compound?
**A.** good stability in human plasma

**Q.** What about the “Residual percentage (%) 4 h” value [3] of the same compound?
**A.** 93.40%

**Q.** What about the IC50 (CYP2D6) of the same compound?
**A.** > 30000 nM
